Test results taken from US11926860B2, “Method of screening inhibitor of caspase activity by lipopolysaccharide” (KOREA INSTITUTE OF SCIENCE AND TECHNOLOGY, priority 2021, dated 2024).
Changes are numbered by the printed parent chain. In names and notes the source's numbering stands.

Assays:
binding of CARD and LPS = molecular target: T1, binding of CARD and LPS (Homo sapiens, UniProt P49662, M1C); assay: FP competition assay of hit compounds; settings: compound 50 μM to 0.022 μM, 6.4 μM LPS-Ra, 50 nM tracer, buffer C, 37° C. 1 hour
T1 construct: three types of cysteine-inserted CARD(1-80) variants (Cys-His-CARD, His-Cys-CARD (M1C-CARD), and His-CARD-Cys); His6 (N); made in house; host or cells: E. coli CLEARCOLI BL21(DE3)
T1 sequence (P49662 1-80 M1C): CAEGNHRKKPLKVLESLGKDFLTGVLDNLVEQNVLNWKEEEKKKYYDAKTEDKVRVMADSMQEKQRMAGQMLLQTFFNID
Procedure: In detail, the FP competition assay was performed by mixing 50 nM of tracer, 6.4 μM of LPS-Ra, and 3-fold serially diluted hit compound (50 μM to 0.022862 μM) in buffer C. The mixture was incubated at 37° C. for 1 hour before measurement. FP values were expressed as a function of compound concentrations, and IC50 values were obtained from a sigmoidal curve fit, as analyzed in GRAPHPAD PRISM 8.

[1] = FP binding assay of ALEXA FLUOR 488-CARD and LPS; settings: for effect of additive on binding of CARD and LPS: buffer C with 0.1 mg/mL BSA, 0.01% NP-40, or 1 mM MC (MgCl2+CaCl2), 37° C. 1 hour
Procedure: Fluorescence polarization (FP) was measured with an APPLISKAN microplate reader (ThermoFisher) using 485 nm excitation and 535 nm emission filters. The FP value was calculated according to the following equation: FP (mP)=1000×(Is−G×Ip)/(Is+G×Ip). In the equation, Is represents a parallel (equivalent) emission intensity, Ip represents a perpendicular emission intensity, and G represents a lattice coefficient 0.877.
FP binding assay was performed by adding 200 μL of a reaction mixture to each well of a black 96-well plate (SPL Life Sciences). The reaction mixture includes 50 nM ALEXA FLUOR 488-CARD (tracer) with increasing concentrations of LPS-Ra (in the range of 0 μM to 12.8 μM, a molecular weight of LPS-Ra is assumed to be 3,835 g/mole, Sigma-Aldrich) in a buffer C or an indicated buffer. The reaction mixture was incubated at 37° C. for 30 minutes to 4 hours before reaction. FP values are expressed as a function of LPS-Ra concentration. FP binding curves of His-Cys-CARD (ALEXA FLUOR 488-CARD) or ALEXA FLUOR 488 alone (dye) with respect to the concentrations of LPS are shown in FIG. 2E.
Apparent equilibrium dissociation constants (Kd^app) were calculated from the nonlinear regression curve fit, as analyzed in GRAPHPAD PRISM 8 from the FP binding curves.
An FP binding curve from FP values measured with buffer C (50 mM Tris-HCl pH 7.0, 150 mM NaCl) supplemented with additives such as 0.1 mg/mL BSA, 0.01% NP-40, or 1 mM MC (MgCl2+CaCl2) is shown in FIG. 3A. An FP binding curve from FP values measured by incubating ALEXA FLOUR 488-CARD serially diluted with buffer C for 0.5 hours to 4 hours is shown in FIG. 3B (grey area: range of 20 nM to 50 nM). An FP binding curve from FP values measured by incubating different concentrations of LPS-Ra in buffer C for 0.5 hours to 4 hours is shown in FIG. 3D. An FP binding curve from FP values measured with buffer C supplemented with different concentrations of DMSO is shown in FIG. 3E. In addition, LPS-Ra concentration-dependent Z′ factor was evaluated in buffer C supplemented with 0% to 10% DMSO. […]

[2] = Tryptophan fluorescence spectrometry of Casp-4 constructs binding to LPS; settings: for Kd: 1 μM protein, LPS-Ra 0 μM to 50 μM, HBS-E buffer, 37° C. 30 minutes, fluorescence intensity at 334 nm, read-out: apparent equilibrium dissociation constant (Kd^app)
Procedure: Apparent dissociation constants were measured by tryptophan fluorescence spectrometry. […] Apparent dissociation constant values were calculated by analyzing the fluorescence emission spectra.
Fluorescence spectra were obtained with a FluoroMate FS-2 fluorescence spectrophotometer (Sinco) equipped with a quartz cuvette with a 5 mm path length. 1 μM of the recombinant protein was mixed with increasing concentrations of LPS-Ra (in the range of 0 μM to 50 μM) in an HBS-E buffer (10 mM HEPES pH 7.5, 150 mM NaCl, 3 mM EDTA), and incubated at 37° C. for 30 minutes. The sample was excited at 280 nm, and emission spectra at 300 nm to 500 nm were recorded with an excitation/emission slit width of 2.5/5 nm, respectively. The fluorescence intensity of the sample was corrected by subtracting the background intensity of LPS alone. A difference in the fluorescence intensity at 334 nm was expressed as a function of LPS-Ra concentration, and the apparent equilibrium dissociation constant (Kd^app) was calculated from the nonlinear regression curve fit, as analyzed in GRAPHPAD PRISM 8. Graphs showing the emission spectra of the tryptophan residue in full-length C258A-Casp-4, CARD, and ΔCARD-C258A-Casp-4 in LPS-Ra (0 μM to 50 μM) are shown in FIG. 1B.

[3] = Surface plasmon resonance (SPR) of Casp-4 constructs on immobilized LPS; type: binding, E. coli; settings: for Kd: 25° C., NH-LPS O55:B5 on CM5 chip, HBS-E, read-out: dissociation constant
Procedure: In addition, the binding affinity between Casp-4 and LPS was determined by a surface plasmon resonance (SPR) experiment. The SPR experiment was performed at 25° C. using a BIACORE T200 (Cytiva). A filtered and degassed running buffer (HBS-E) was prepared prior to use. Amine-derived LPS O55:B5 (NH-LPS, Sigma-Aldrich) was prepared by a method described in P. T. Wong et al., J Mater Chem B, 2015, 3, 1149-1156, herein incorporated by reference. NH-LPS was immobilized on a CM5 sensor chip (Cytiva) using an amine coupling method (480 RU), and blocked with 1 M ethanolamine (pH 8.5). Purified proteins of the indicated concentration were injected, and the resulting sensorgrams were analyzed using a BIACORE T200 Evaluation software.

CN1CCN(c2nc(C3=C(c4c[nH]c5ccccc45)C(=O)NC3=O)c3ccccc3n2)CC1 [C-15, Sotrastaurin]
IC50 (FP signal decrease, concentration-dependent) (binding of CARD and LPS): μM level

CC1=NN(c2ccc(C)c(C)c2)C(=O)/C1=N\Nc1cccc(-c2cccc(C(=O)O)c2)c1O [C-11, Eltrombopag Olamine]
IC50 (FP signal decrease, concentration-dependent) (binding of CARD and LPS): μM level

CN(C)c1ccc(C(=C2C=CC(=[N+](C)C)C=C2)c2ccc(N(C)C)cc2)cc1 [C-5, Crystal violet]
IC50 (FP signal decrease, concentration-dependent) (binding of CARD and LPS): μM level

NP-40
effect of additive on binding of CARD and LPS [1]: inhibited

Cc1cc(Nc2ncc(Cl)c(Nc3ccccc3S(=O)(=O)C(C)C)n2)c(OC(C)C)cc1C1CCNCC1 [C-16, Ceritinib]
IC50 (FP signal decrease, concentration-dependent) (binding of CARD and LPS): μM level

bovine serum albumin [BSA]
effect of additive on binding of CARD and LPS [1]: inhibited

O=C1c2c(O)ccc(O)c2C(=O)c2c(NCCNCCO)ccc(NCCNCCO)c21 [C-6, Mitoxantrone]
IC50 (FP signal decrease, concentration-dependent) (binding of CARD and LPS): μM level

CCOc1ccc2nc3cc(N)ccc3c(N)c2c1 [C-8, Ethacridine lactate]
IC50 (FP signal decrease, concentration-dependent) (binding of CARD and LPS): μM level

CN1CCN(c2ccc(C(=O)Nc3n[nH]c4ccc(Cc5cc(F)cc(F)c5)cc34)c(NC3CCOCC3)c2)CC1 [C-19, Entrectinib]
IC50 (FP signal decrease, concentration-dependent) (binding of CARD and LPS): μM level

Cn1cc(C2=C(c3cn(C4CCN(Cc5ccccn5)CC4)c4ccccc34)C(=O)NC2=O)c2ccccc21 [C-13, Enzastaurin]
IC50 (FP signal decrease, concentration-dependent) (binding of CARD and LPS): μM level

B1: CARD: caspase activation and recruitment domain of Casp-4, residues 1-80, His6 tag at the N-terminus (protein)
chain: T1 sequence (P49662 1-80 M1C) with C1M
modifications: N-terminal His6 tag; Caspase-4 CARD polypeptide
Kd [2]: 6500 ± 800 nM
Kd [3]: 2100 nM

B2: ALEXA FLOUR 488-CARD: ALEXA FLUOR 488-labeled His-Cys-CARD (M1C-CARD), tracer for FP assays (conjugate, UniProt P49662 1-80, looked up, fragment M1C)
chain: T1 sequence (P49662 1-80 M1C)
modifications: CARD Alexa Fluor 488 label; His tag
notes: ALEXA FLUOR 488-labeled His-Cys-CARD (M1C-CARD), tracer for FP assays
Kd ([1]; 50 nM ALEXA FLOUR 488-CARD, LPS-Ra 0 μM to 12.8 μM, buffer C, 37° C., read-out: Kd^app): 2200 ± 200 nM

B3: C258A-Casp-4: Catalytically inactive full-length Casp-4 (1-377, C258A modification) (protein, UniProt P49662 1-377, looked up, variant C258A)
chain: MAEGNHRKKPLKVLESLGKDFLTGVLDNLVEQNVLNWKEEEKKKYYDAKTEDKVRVMADSMQEKQRMAGQMLLQTFFNIDQISPNKKAHPNMEAGPPESGESTDALKLCPHEEFLRLCKERAEEIYPIKERNNRTRLALIICNTEFDHLPPRNGADFDITGMKELLEGLDYSVDVEENLTARDMESALRAFATRPEHKSSDSTFLVLMSHGILEGICGTVHDEKKPDVLLYDTIFQIFNNRNCLSLKDKPKVIIVQAARGANRGELWVRDSPASLEVASSQSSENLEEDAVYKTHVEKDFIAFCSSTPHNVSWRDSTMGSIFITQLITCFQKYSWCCHLEEVFRKVQQSFETPRAKAQMPTIERLSMTRYFYLFPGN
modifications: full-length
Kd [2]: 5300 ± 500 nM
Kd [3]: 2400 nM

B4: ΔCARD-C258A-Casp-4: CARD truncated Casp-4 (81-377, C258A modification) (protein, UniProt P49662 81-377, looked up, fragment C258A)
chain: QISPNKKAHPNMEAGPPESGESTDALKLCPHEEFLRLCKERAEEIYPIKERNNRTRLALIICNTEFDHLPPRNGADFDITGMKELLEGLDYSVDVEENLTARDMESALRAFATRPEHKSSDSTFLVLMSHGILEGICGTVHDEKKPDVLLYDTIFQIFNNRNCLSLKDKPKVIIVQAARGANRGELWVRDSPASLEVASSQSSENLEEDAVYKTHVEKDFIAFCSSTPHNVSWRDSTMGSIFITQLITCFQKYSWCCHLEEVFRKVQQSFETPRAKAQMPTIERLSMTRYFYLFPGN
binding to LPS ([2]; tryptophan fluorescence, FIG. 1B): not identified
binding to LPS ([3]; FIG. 1C): not identified
